{"source": "patent US20150191484A1", "about": "“NOVEL COMPOUNDS HAVING A TETRACYCLIC IRIDOID SKELTON AND AN ANTI-TRYPANOSOMAL AGENT COMPRISING THE SAME AS AN ACTIVE INGREDIENT” (NATIONAL UNIVERSITY CORPORATION TOKYO MEDICAL AND DENTAL …, priority 2014, published 2015)", "key": {"[1]": {"system": "Trypanosoma cells", "experiment": "Cell cycle assay (FACS)", "assay_type": "cell-based, Trypanosoma brucei brucei", "details": "four times of IC50: 15 μM ML-2-3, 5 μM ML-2-2; 24 hours", "protocol": "(§1) The GUTat 3.1 strain of the bloodstream forms of T. b. brucei parasites was used for this study. Parasites were cultured in vitro according to the conditions established by Yabu et al, 1998.\n(§2) Parasites were used when they reached a confluent concentration of 1×10^6 parasites/ml. Estimation of parasitemia was done with the Neubauer's counting chamber. Parasites were diluted to a concentration of 3×10^5 parasites/ml with HMI-9 medium and used for the various experiments.\nThis assay was performed to investigate any abnormal change in the parasites' cell cycle which may be caused by extracts/compounds with trypanocidal effect. […] The parasites were collected and transferred into 15 ml centrifuge tubes and centrifuged at 1700 rpm for 10 min, after which the supernatant was discarded. The pelleted parasites were re-suspended in 5 ml PBS solution and vortexed to form a suspension. The parasite suspension was centrifuged at 1700 rpm for 10 min and the supernatant discarded. The pelleted parasites were re-suspended in 1.5 ml of PBS and vortexed thoroughly before adding 3.5 ml absolute EtOH gradually to a final volume of 5 ml 70% EtOH. The parasites were then fixed at −20° C. for 1 h. The cell suspension was then centrifuged at 1700 rpm for 10 min and the supernatant discarded. Pelleted parasites were re-suspended in 200 μl of Guava Cell Cycle reagent, which has Propidium Iodide as its main constituent and incubated at room temperature for 30 min. The solution was transferred to wells of 96-well plate. The well contents were then subjected to FACS analysis using the Millipore guava easyCyte 5HT FACS machine, for the sorting of parasites according to the manufacturer's instructions."}, "[2]": {"experiment": "MTT cytotoxicity assay, THP-1", "assay_type": "cell-based, human", "details": "human, THP-1 leukemia cells; THP-1 leukemia, 48 h, MTT", "protocol": "(§3) The cytotoxic activity of natural products against mammalian cells is an important point in the search for active compounds with biological activity. […] In order to confirm the selective and potent anti-trypanosomal activity of ML-2-2 and ML-2-3, we examined their cytotoxicity in a panel of human cell lines including two human fibroblastic and 8 human cancer-derived cell lines. Cells were seeded in 96-well microplates and incubated with ML-2-2 and ML-2-3 for 48 h at 37° C. in a 5% CO2 humidified incubator. The viabilities of cells were determined with the MTT (3-(4,5-dimethylthiazol-2-yl)-2-5-diphenyltetrazolium bromide) assay. The selectivity index (SI) was determined using the following equation: IC50 against human cells/IC50 against T. brucei. The IC50 values of ML-2-3 were higher than those of ML-2-2 in all the cell lines examined. […] The SI of ML-2-2 indicates values below 1.00 in most cell lines. On the other hand, SI values of ML-2-3 were much higher than those of ML-2-2 in all tested cell lines."}, "[3]": {"system": "THP-1 (leukemia)", "experiment": "MTT cytotoxicity assay, THP-1", "assay_type": "cell-based, human", "details": "IC50 against THP-1 / IC50 against T. brucei", "protocol": "as §3"}, "[4]": {"experiment": "MTT cytotoxicity assay, HCT-15", "assay_type": "cell-based, human", "details": "human, HCT-15 colon cancer cells; HCT-15 colon cancer, 48 h, MTT", "protocol": "as §3"}, "[5]": {"system": "HCT-15 (colon cancer)", "experiment": "MTT cytotoxicity assay, HCT-15", "assay_type": "cell-based, human", "details": "IC50 against HCT-15 / IC50 against T. brucei", "protocol": "as §3"}, "[6]": {"system": "GUTat 3.1 strain of the bloodstream forms of T. b. brucei parasites", "experiment": "Alamar Blue assay (trypanocidal activity)", "assay_type": "cell-based, Trypanosoma brucei brucei", "details": "Trypanosoma brucei, 48 h, T. b. brucei, Alamar Blue, 48 h; read-out: IC50 of anti-trypanosomal activity", "protocol": "as §1, §2\nThe Alamar Blue assay was carried out in a 96-well plate. About 1.5×10^4 Parasites were seeded with varied concentrations of the Morinda lucida crude extract, ranging from as low as 0.78 μg/ml to as high as 200 μg/ml, in a ratio of 1:1 in 100 μl volume per well. Berberine, a compound known as anti-trypanocidal agent, was used as a positive control. […] The parasites were incubated with the plant extracts for 24 hours at 37° C. and under 5% CO2. After 24 hours, 10% Alamar Blue dye was added to each well and re-incubated for another 24 hours under the same conditions but in darkness. After a total of 48 hours, the plate was read for absorbance at 540 nm using the TECAN Sunrise Wako Spectrophotometer. An Absorbance-concentration (extract) curve was drawn and the IC50 value of the plant extract was extrapolated. Alamar Blue assay was also performed on the fractions and compounds purified from Morinda Lucida to determine their IC50 values. The IC50 values obtained were compared with that of the positive control and trypanocidal activity determined."}, "[7]": {"system": "HF-19 (normal fibroblast)", "experiment": "MTT cytotoxicity assay, HF-19", "assay_type": "cell-based, human", "details": "IC50 against HF-19 / IC50 against T. brucei", "protocol": "as §3"}, "[8]": {"experiment": "MTT cytotoxicity assay, HF-19", "assay_type": "cell-based, human", "details": "human, HF-19 normal fibroblast cells; HF-19 normal fibroblast, 48 h, MTT", "protocol": "as §3"}, "[9]": {"system": "Jurkat (leukemia)", "experiment": "MTT cytotoxicity assay, Jurkat", "assay_type": "cell-based, human", "details": "IC50 against Jurkat / IC50 against T. brucei", "protocol": "as §3"}, "[10]": {"experiment": "MTT cytotoxicity assay, Jurkat", "assay_type": "cell-based, human", "details": "human, Jurkat leukemia cells; Jurkat leukemia, 48 h, MTT", "protocol": "as §3"}, "[11]": {"experiment": "MTT cytotoxicity assay, Caco2", "assay_type": "cell-based, human", "details": "human, Caco2 colon cancer cells; Caco2 colon cancer, 48 h, MTT", "protocol": "as §3"}, "[12]": {"system": "Caco2 (colon cancer)", "experiment": "MTT cytotoxicity assay, Caco2", "assay_type": "cell-based, human", "details": "IC50 against Caco2 / IC50 against T. brucei", "protocol": "as §3"}, "[13]": {"system": "HL-60 (leukemia)", "experiment": "MTT cytotoxicity assay, HL-60", "assay_type": "cell-based, human", "details": "IC50 against HL-60 / IC50 against T. brucei", "protocol": "as §3"}, "[14]": {"experiment": "MTT cytotoxicity assay, HL-60", "assay_type": "cell-based, human", "details": "human, HL-60 leukemia cells; HL-60 leukemia, 48 h, MTT", "protocol": "as §3"}, "[15]": {"system": "Trypanosoma cells", "experiment": "Nexin apoptosis assay (FACS)", "assay_type": "cell-based, Trypanosoma brucei brucei", "protocol": "as §1, §2\nThis assay was performed to detect both Phosphatidylserine (PS) signal and fracture of nuclear membraneas markers of apoptosis. Seeding and incubation of parasites with plant materials (extracts, fractions and compounds) were done under the same conditions in Alamar Blue assay. […] The contents of the wells were then subjected to FACS analysis using, the Millipore guava easyCyte 5HT FACS machine for the sorting and estimation of apoptotic parasites according to the manufacturer's instructions."}, "[16]": {"system": "KATOIII (stomach cancer)", "experiment": "MTT cytotoxicity assay, KATOIII", "assay_type": "cell-based, human", "details": "IC50 against KATOIII / IC50 against T. brucei", "protocol": "as §3"}, "[17]": {"experiment": "MTT cytotoxicity assay, KATOIII", "assay_type": "cell-based, human", "details": "human, KATOIII stomach cancer cells; KATOIII stomach cancer, 48 h, MTT", "protocol": "as §3"}, "[18]": {"system": "LoVo (colon cancer)", "experiment": "MTT cytotoxicity assay, LoVo", "assay_type": "cell-based, human", "details": "IC50 against LoVo / IC50 against T. brucei", "protocol": "as §3"}, "[19]": {"experiment": "MTT cytotoxicity assay, LoVo", "assay_type": "cell-based, human", "details": "human, LoVo colon cancer cells; LoVo colon cancer, 48 h, MTT", "protocol": "as §3"}, "[20]": {"experiment": "MTT cytotoxicity assay, NB1RGB", "assay_type": "cell-based, human", "details": "human, NB1RGB normal fibroblast cells; NB1RGB normal fibroblast, 48 h, MTT", "protocol": "as §3"}, "[21]": {"system": "NB1RGB (normal fibroblast)", "experiment": "MTT cytotoxicity assay, NB1RGB", "assay_type": "cell-based, human", "details": "IC50 against NB1RGB / IC50 against T. brucei", "protocol": "as §3"}, "[22]": {"experiment": "MTT cytotoxicity assay, U937", "assay_type": "cell-based, human", "details": "human, U937 leukemia cells; U937 leukemia, 48 h, MTT", "protocol": "as §3"}, "[23]": {"system": "U937 (leukemia)", "experiment": "MTT cytotoxicity assay, U937", "assay_type": "cell-based, human", "details": "IC50 against U937 / IC50 against T. brucei", "protocol": "as §3"}, "[24]": {"system": "Leishmania", "details": "reported in literature; cited from earlier work"}, "[25]": {"system": "nuclear DNA of Trypanosoma cells", "details": "reported in literature; cited from earlier work"}}, "note": "“Also recorded” adds a separate entry of the source.", "data": [{"molecule": "COC(=O)C1=CO[C@@H]2O[C@H]3/C(=C\\c4ccc(O)c(OC)c4)C(=O)O[C@]34C=C[C@H]1[C@H]24", "note": "[ML-2-2, (3aS,4aR,4a^1S,7aS,9aS,3E)-methyl 3-(4-hydroxy-3-methoxybenzylidene)-2-oxo-2,3,3a,4a,4a^1,7a-hexahydro-1,4,5-trioxadicyclopenta[a,hi]indene-7-carboxylate]", "values": [{"measurement": "numbers of cells in the G2 and M phase of cell cycle", "setting": "[1]", "value": "did not; also recorded: had no effect"}, {"measurement": "IC50 at 48 h", "setting": "[2]", "value": 6.98, "unit": "µM"}, {"measurement": "SI (selectivity index)", "setting": "[3]", "value": 5.50}, {"measurement": "IC50 at 48 h", "setting": "[4]", "value": 16, "unit": "µM"}, {"measurement": "SI (selectivity index)", "setting": "[5]", "value": 12.63}, {"measurement": "IC50", "setting": "[6]", "value": 1.27, "unit": "µM"}, {"measurement": "SI (selectivity index)", "setting": "[7]", "value": 9.54}, {"measurement": "IC50 at 48 h", "setting": "[8]", "value": 12.1, "unit": "µM"}, {"measurement": "SI (selectivity index)", "setting": "[9]", "value": 1.93}, {"measurement": "IC50 at 48 h", "setting": "[10]", "value": 2.45, "unit": "µM"}, {"measurement": "IC50 at 48 h", "setting": "[11]", "value": 1.35, "unit": "µM"}, {"measurement": "SI (selectivity index)", "setting": "[12]", "value": 1.06}, {"measurement": "SI (selectivity index)", "setting": "[13]", "value": 3.05}, {"measurement": "IC50 at 48 h", "setting": "[14]", "value": 3.87, "unit": "µM"}, {"measurement": "induction of apoptosis", "setting": "[15]; 6.25 μM, 24-hour incubation", "value": "no significant induction of apoptosis"}, {"measurement": "induction of apoptosis in Trypanosoma cells", "setting": "[15]; same concentration (6 μM)", "value": "did not"}, {"measurement": "SI (selectivity index)", "setting": "[16]", "value": 0.17}, {"measurement": "IC50 at 48 h", "setting": "[17]", "value": 0.21, "unit": "µM"}, {"measurement": "SI (selectivity index)", "setting": "[18]", "value": 0.09}, {"measurement": "IC50 at 48 h", "setting": "[19]", "value": 0.11, "unit": "µM"}, {"measurement": "IC50 at 48 h", "setting": "[20]", "value": 6.01, "unit": "µM"}, {"measurement": "SI (selectivity index)", "setting": "[21]", "value": 4.73}, {"measurement": "IC50 at 48 h", "setting": "[22]", "value": 4.08, "unit": "µM"}, {"measurement": "SI (selectivity index)", "setting": "[23]", "value": 3.21}]}, {"molecule": "COC(=O)C1=CO[C@H]2O[C@@H]3/C(=C\\c4ccc(O)c(OC)c4)C(=O)O[C@@]34C=C[C@@H]1[C@H]24", "note": "[Oruwacin]", "values": [{"measurement": "anti-Leishmania activity", "setting": "[24]", "value": "has anti-Leishmania activity"}]}, {"molecule": "N=C(N)c1ccc(OCCCCCOc2ccc(C(=N)N)cc2)cc1", "note": "[Pentamidine]", "values": [{"measurement": "effect on nuclear DNA of Trypanosoma cells", "setting": "[25]", "value": "no effect on nuclear DNA"}]}]}
